Experimental findings from patent US20260325533A1, “CDK INHIBITOR COMPOUNDS” (ALEKSIA THERAPEUTICS, INC., priority 2023, published 2026) are described below.

Where two headings read alike, the source gives them in different places.

Common to all, as to type: biochemical
For test [1], the target named is CDK2/CCNE1 (Homo sapiens, UniProt P24941). The test is described as follows: CDK2 homogeneous time-resolved fluorescence (HTRF) kinase assay. The conditions noted are these: CDK2/CCNE. In a few lines:
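TR-FRET read-out (665 nm, or 665/615 ratio) of Eu-antibody detection of phospho-4E-BP1 (Thr37/46) ULight peptide. Enzyme 3 nM, ATP 1 mM, peptide 50 nM, 1% DMSO; 60 min reaction at 23 °C after 20 min compound preincubation. IC50 from 11-point half-log titrations, top typically 10 μM.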
Background: Time-resolved FRET reads energy transfer from a long-lived donor to a nearby acceptor.

Test [2] has as its target CDK1/CCNB1 (Homo sapiens, UniProt P06493). The test can be described thus: CDK1 homogeneous time-resolved fluorescence (HTRF) kinase assay. The conditions noted are these: CDK1/CCNB. The method, boiled down: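 HTRF assay with 0.5 nM CDK1/CCNB1, 1 mM ATP, 50 nM ULight-eIF4E-BP1 (Thr37/46) peptide; compound preincubated 20 min, reaction 60 min at 23 °C, EDTA stop, Eu-anti-phospho antibody detection. 11-point half-log titration from 10 μM, 1% DMSO; IC50 from 665 nm or 665/615 signal.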

The target of test [3] is CDK4/CCND3 (Homo sapiens, UniProt P11802). The test can be described thus: CDK4 homogeneous time-resolved fluorescence (HTRF) kinase assay. Particulars: CDK4/CCND; x = IC50 >250 nM; read-out: CDK4/CCND IC50 (>250 nM column). The method, boiled down:
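IC50s derive from Lance 665 nm or 665/615 nm signals in 11-point, half-log dose series (top 10 μM, 1% DMSO). The enzyme, 1.5 nM CDK4/CCND3, phosphorylates 50 nM ULight-4E-BP1 peptide with 1 mM ATP over 60 min at 23 °C.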

Test [4] has as its target CDK6/CCND1 (Homo sapiens, UniProt Q00534). The test can be described thus: CDK6 homogeneous time-resolved fluorescence (HTRF) kinase assay. Particulars: CDK6/CCND; x = IC50 >250 nM; read-out: CDK6/CCND IC50 (>250 nM column). The method, boiled down:
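Assay conditions: HEPES buffer containing 10 mM MgCl2, 1 mM EGTA, 2 mM DTT, 0.01% Tween 20; 1 nM CDK6/CCND1, 50 nM peptide substrate, 1 mM ATP. Detection after 60 min reaction used 2 nM europium antibody with 340 nm excitation. Potency fitted from half-log series, 11 points.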

The mark [5] stands for this setting: x = IC50 <25 nM, read-out: CDK2/CCNE IC50 (<25 nM).
[6] abbreviates: x = IC50 >250 nM, read-out: CDK1/CCNB IC50 (>250 nM column).
[7] abbreviates: x = IC50 25-250 nM, read-out: CDK1/CCNB IC50 (25-250 nM).

CDK4/CCND3, sequence (P11802 whole entry): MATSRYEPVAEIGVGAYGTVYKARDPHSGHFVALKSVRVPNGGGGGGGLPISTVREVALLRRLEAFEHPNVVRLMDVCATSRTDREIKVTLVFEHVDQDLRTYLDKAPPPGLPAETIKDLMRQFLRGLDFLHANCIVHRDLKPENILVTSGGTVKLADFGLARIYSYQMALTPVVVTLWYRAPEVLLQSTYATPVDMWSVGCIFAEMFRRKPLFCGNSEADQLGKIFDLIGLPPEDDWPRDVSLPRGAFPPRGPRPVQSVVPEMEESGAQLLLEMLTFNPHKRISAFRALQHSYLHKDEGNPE
CDK4/CCND3, sequence (P30281 whole entry partner): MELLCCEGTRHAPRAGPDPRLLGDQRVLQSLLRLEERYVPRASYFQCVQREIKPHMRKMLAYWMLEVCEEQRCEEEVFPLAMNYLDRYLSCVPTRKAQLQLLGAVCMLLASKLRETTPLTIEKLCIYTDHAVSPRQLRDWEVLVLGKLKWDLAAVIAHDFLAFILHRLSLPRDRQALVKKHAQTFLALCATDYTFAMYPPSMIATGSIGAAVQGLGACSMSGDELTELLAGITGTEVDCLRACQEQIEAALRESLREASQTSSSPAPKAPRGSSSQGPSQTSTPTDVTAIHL
CDK6/CCND1, sequence (Q00534 whole entry): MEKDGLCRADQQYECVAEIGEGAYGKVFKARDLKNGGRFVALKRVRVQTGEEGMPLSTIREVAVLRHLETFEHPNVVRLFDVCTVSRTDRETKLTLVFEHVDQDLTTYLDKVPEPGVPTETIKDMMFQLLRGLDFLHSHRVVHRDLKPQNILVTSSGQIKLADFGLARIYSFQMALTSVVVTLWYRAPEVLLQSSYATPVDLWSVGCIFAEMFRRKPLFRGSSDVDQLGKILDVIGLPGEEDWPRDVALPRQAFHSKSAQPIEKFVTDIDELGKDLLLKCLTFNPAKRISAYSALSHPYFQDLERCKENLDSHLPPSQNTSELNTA
CDK6/CCND1, sequence (P24385 whole entry partner): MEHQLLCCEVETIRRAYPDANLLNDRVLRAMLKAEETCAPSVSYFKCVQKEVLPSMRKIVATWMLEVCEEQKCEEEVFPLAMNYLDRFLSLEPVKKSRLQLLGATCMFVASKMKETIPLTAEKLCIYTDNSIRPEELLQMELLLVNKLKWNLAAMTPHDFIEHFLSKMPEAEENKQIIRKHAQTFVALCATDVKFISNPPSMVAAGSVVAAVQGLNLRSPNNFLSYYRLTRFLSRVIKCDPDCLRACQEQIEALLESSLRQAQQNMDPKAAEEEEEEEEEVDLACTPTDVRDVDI
CDK1/CCNB1, sequence (P06493 whole entry): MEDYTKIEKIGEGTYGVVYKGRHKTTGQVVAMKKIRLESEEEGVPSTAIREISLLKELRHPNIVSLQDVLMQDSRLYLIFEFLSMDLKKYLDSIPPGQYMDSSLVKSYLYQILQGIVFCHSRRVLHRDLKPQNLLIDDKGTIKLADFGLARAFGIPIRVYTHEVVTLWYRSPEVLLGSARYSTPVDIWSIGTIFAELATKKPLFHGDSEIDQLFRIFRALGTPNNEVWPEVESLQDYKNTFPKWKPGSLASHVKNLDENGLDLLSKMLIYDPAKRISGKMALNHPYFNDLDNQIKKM
CDK1/CCNB1, sequence (P14635 whole entry partner): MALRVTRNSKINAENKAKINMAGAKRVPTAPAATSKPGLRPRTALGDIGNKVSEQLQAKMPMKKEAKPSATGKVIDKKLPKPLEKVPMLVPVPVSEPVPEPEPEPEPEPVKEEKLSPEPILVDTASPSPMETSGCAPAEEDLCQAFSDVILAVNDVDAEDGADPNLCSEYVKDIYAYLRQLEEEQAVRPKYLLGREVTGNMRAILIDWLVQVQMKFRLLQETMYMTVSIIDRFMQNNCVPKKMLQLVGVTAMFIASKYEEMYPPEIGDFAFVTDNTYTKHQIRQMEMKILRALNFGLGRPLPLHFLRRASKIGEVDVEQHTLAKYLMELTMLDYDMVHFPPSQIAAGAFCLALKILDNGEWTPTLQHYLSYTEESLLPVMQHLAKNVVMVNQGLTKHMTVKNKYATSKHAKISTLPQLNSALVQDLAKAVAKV

As to `Cc1cc(S(C)(=O)=O)ccc1Nc1cc2c(C#Cc3ccc4c(c3)NC(=O)C43CC3)nccc2cn1` [Ex 351, 6'-((7-((2-methyl-4-(methylsulfonyl)phenyl)amino)-2,6-naphthyridin-1-yl)ethynyl)spiro[cyclopropane-1,3'-indolin]-2'-one], the IC50 in test [1] (setting [5]) is < 25 nM; in test [2] (setting [6]), > 250 nM; in test [3], > 250 nM; in test [4], > 250 nM.
With `CC1(C)C(=O)Nc2cc(C#Cc3nccc4cnc(Nc5ccc(S(C)(=O)=O)cc5C(F)(F)F)cc34)ccc21` [Ex 352, 3,3-dimethyl-6-((7-((4-(methylsulfonyl)-2-(trifluoromethyl)phenyl)amino)-2,6-naphthyridin-1-yl)ethynyl)indolin-2-one], the IC50 was > 250 nM in test [1] (x = IC50 >250 nM, read-out: CDK2/CCNE IC50 (>250 nM column)); > 250 nM in test [2] (setting [6]); > 250 nM in test [3]; > 250 nM in test [4].
On to `CCS(=O)(=O)c1ccc(Nc2cc3c(C#Cc4ccc5c(c4)NC(=O)C54CC4)nccc3cn2)c(C)c1` [Ex 356, 6'-((7-((4-(ethylsulfonyl)-2-methylphenyl)amino)-2,6-naphthyridin-1-yl)ethynyl)spiro[cyclopropane-1,3'-indolin]-2'-one], for which the IC50 in test [1] (setting [5]) was < 25 nM; in test [2] (setting [7]) it was 25 to 250 nM; in test [3] it was > 250 nM; in test [4], > 250 nM.
For the molecule `CCS(=O)(=O)c1ccc(Nc2cc3c(C#Cc4ccc5c(c4)NC(=O)C54CC4)nccc3cn2)c(OC)c1` [Ex 357, 6'-((7-((4-(ethylsulfonyl)-2-methoxyphenyl)amino)-2,6-naphthyridin-1-yl)ethynyl)spiro[cyclopropane-1,3'-indolin]-2'-one], the IC50 in test [1] (setting [5]) was < 25 nM; in test [2] (setting [6]), > 250 nM; in test [3] it was > 250 nM; in test [4] it was > 250 nM.
For the molecule `COc1cc(S(C)(=O)=O)ccc1Nc1cc2c(C#Cc3ccc4c(c3)NC(=O)C43CCC3)nccc2cn1` [Ex 361, 6'-((7-((2-methoxy-4-(methylsulfonyl)phenyl)amino)-2,6-naphthyridin-1-yl)ethynyl)spiro[cyclobutane-1,3'-indolin]-2'-one], the IC50 in test [1] (setting [5]) is < 25 nM; in test [2] (setting [6]), > 250 nM; in test [3], > 250 nM; in test [4], > 250 nM.
For the molecule `CCC1(CC)C(=O)Nc2cc(C#Cc3nccc4cnc(Nc5ccc(S(=O)(=O)C(C)C)cc5C)cc34)ccc21` [Ex 369, 3,3-diethyl-6-((7-((4-(isopropylsulfonyl)-2-methylphenyl)amino)-2,6-naphthyridin-1-yl)ethynyl)indolin-2-one], the IC50 in test [1] (setting [5]) is < 25 nM; in test [2] (setting [6]) it was > 250 nM; in test [3], > 250 nM; in test [4] it was > 250 nM.
As for `CCC1(CC)C(=O)Nc2cc(C#Cc3nccc4cnc(Nc5ccc(S(=O)(=O)CC)cc5C)cc34)ccc21` [Ex 370, 3,3-diethyl-6-((7-((4-(ethylsulfonyl)-2-methylphenyl)amino)-2,6-naphthyridin-1-yl)ethynyl)indolin-2-one], the IC50 is < 25 nM in test [1] (setting [5]), > 250 nM in test [2] (setting [6]), > 250 nM in test [3] and > 250 nM in test [4].
Regarding `CCC1(CC)C(=O)Nc2cc(C#Cc3nccc4cnc(Nc5ccc(S(=O)(=O)CC)cc5OC)cc34)ccc21` [Ex 371, 3,3-diethyl-6-((7-((4-(ethylsulfonyl)-2-methoxyphenyl)amino)-2,6-naphthyridin-1-yl)ethynyl)indolin-2-one], the IC50 in test [1] (setting [5]) is < 25 nM; in test [2] (setting [6]) it was > 250 nM; in test [3] it was > 250 nM; in test [4] it was > 250 nM.
`COc1cc(S(C)(=O)=O)ccc1Nc1cc2c(C#Cc3ccc4c(c3)NC(=O)C43CC3)nccc2cn1` [Ex 375, 6'-((7-((2-methoxy-4-(methylsulfonyl)phenyl)amino)-2,6-naphthyridin-1-yl)ethynyl)spiro[cyclopropane-1,3'-indolin]-2'-one]: the IC50 is < 25 nM in test [1] (setting [5]), > 250 nM in test [2] (setting [6]), > 250 nM in test [3] and > 250 nM in test [4].
Regarding `CC1(C)C(=O)Nc2cc(C#Cc3nccc4cnc(Nc5ccc(S(C)(=O)=O)c(O)c5)cc34)ccc21` [Ex 379, 6-((7-((3-hydroxy-4-(methylsulfonyl)phenyl)amino)-2,6-naphthyridin-1-yl)ethynyl)-3,3-dimethylindolin-2-one], the IC50 in test [1] (setting [5]) is < 25 nM; in test [2] (setting [6]), > 250 nM; in test [3], > 250 nM; in test [4], > 250 nM.
Regarding `CC1(C)C(=O)Nc2cc(C#Cc3nccc4cnc(Nc5ccc(S(C)(=O)=O)cc5O)cc34)ccc21` [Ex 380, 6-((7-((2-hydroxy-4-(methylsulfonyl)phenyl)amino)-2,6-naphthyridin-1-yl)ethynyl)-3,3-dimethylindolin-2-one], the IC50 in test [1] (setting [5]) was < 25 nM; in test [2] (setting [6]), > 250 nM; in test [3] it was > 250 nM; in test [4], > 250 nM.
As to `Cc1cc(S(C)(=O)=O)ccc1Nc1cc2c(C#Cc3ccc4c(c3)NC(=O)C43CCC3)nccc2cn1` [Ex 381, 6'-((7-((2-methyl-4-(methylsulfonyl)phenyl)amino)-2,6-naphthyridin-1-yl)ethynyl)spiro[cyclobutane-1,3'-indolin]-2'-one], the IC50 in test [1] (setting [5]) is < 25 nM; in test [2] (setting [6]) it was > 250 nM; in test [3] it was > 250 nM; in test [4] it was > 250 nM.
On to `O=C1Nc2cc(C#Cc3nccc4cnc(Nc5ccc(S(=O)(=O)C6CC6)cc5)cc34)ccc2C12CCC2` [Ex 385, 6'-((7-((4-(cyclopropylsulfonyl)phenyl)amino)-2,6-naphthyridin-1-yl)ethynyl)spiro[cyclobutane-1,3'-indolin]-2'-one], for which the IC50 is < 25 nM in test [1] (setting [5]), 25 to 250 nM in test [2] (setting [7]), > 250 nM in test [3] and > 250 nM in test [4].
`CC(C)S(=O)(=O)c1ccc(Nc2cc3c(C#Cc4ccc5c(c4)NC(=O)C54CCC4)nccc3cn2)cc1` [Ex 386, 6'-((7-((4-(isopropylsulfonyl)phenyl)amino)-2,6-naphthyridin-1-yl)ethynyl)spiro[cyclobutane-1,3'-indolin]-2'-one]: the IC50 was < 25 nM in test [1] (setting [5]), > 250 nM in test [2] (setting [6]), > 250 nM in test [3] and > 250 nM in test [4].
As to `O=C1Nc2cc(C#Cc3nccc4cnc(Nc5ccc(S(=O)(=O)C6CCC6)cc5)cc34)ccc2C12CCC2` [Ex 387, 6'-((7-((4-(cyclobutylsulfonyl)phenyl)amino)-2,6-naphthyridin-1-yl)ethynyl)spiro[cyclobutane-1,3'-indolin]-2'-one], the IC50 in test [1] (setting [5]) is < 25 nM; in test [2] (setting [7]), 25 to 250 nM; in test [3], > 250 nM; in test [4], > 250 nM.
With `O=C1Nc2cc(C#Cc3nccc4cnc(Nc5ccc(S(=O)(=O)C6CC6)cc5)cc34)ccc2C12CC2` [Ex 392, 6'-((7-((4-(cyclopropylsulfonyl)phenyl)amino)-2,6-naphthyridin-1-yl)ethynyl)spiro[cyclopropane-1,3'-indolin]-2'-one], the IC50 in test [1] (setting [5]) is < 25 nM; in test [2] (setting [7]), 25 to 250 nM; in test [3], > 250 nM; in test [4], > 250 nM.
